The values that follow come from patent US4301313A, “Halogenated ethynyl biphenyls” (Eli-Lilly and Company, priority 1974, dated 1981).

As usually defined, the % Inhibition is the relative decrease from the control value, in per cent. The inhibition in vivo is the share of the control response that was lost under treatment. Low readings indicate a response near the control, high ones a response far below the control.

Where “and” joins values, the source holds several entries; their conditions need not be identical. Identical values can stand only once.

Assay [1] in a line: control of inflammation in dogs (ultraviolet-induced erythema, abdominal skin). The assay is classed as in vivo, dog. As for the experimental part: (4-(2-Fluorophenyl)phenyl)acetylene was also evaluated for the control of inflammation in dogs. The testing procedures were the same as reported in the preceding examples except for these differences: a 10-second exposure time was used; non-pigmented abdominal skin was used; and the observed erythema was graded every half hour over a three-hour period with no weighting of scores. A placebo control was run with the same test dogs on the day prior to treatment.

Assay [2] can be described thus: carrageenin induced test, compound administered about 20 hours prior. The assay is classed as in vivo. Particulars: rat, dose 10 (unit not given), about 20 hours prior to test. As for the experimental part:
(§1) Representative compounds were also evaluated for anti-inflammatory activity in the test method described by C. A. Winter at 111 Proc. Soc. Exp. Biol. Med., 544 (1962). In this method, inflammation is created by injecting carrageenin into the hind paw of rats. Test compounds are administered prior to injection to determine percent inhibition of the subsequent inflammation, in comparison with control animals.
Each of 4-biphenylylacetylene and (4-(2-fluorophenyl)phenyl)acetylene was evaluated again in the carrageenin induced test method reported in Examples 60-80. However, in these tests, the compound was administered about 20 hours prior to the test procedures.

The nature of assay [3]: antipyretic effect in yeast-induced fever. Format: in vivo, rat. As for the experimental part: (4-(2-Fluorophenyl)phenyl)acetylene was evaluated for antipyretic effect in rats. Fever was induced by subcutaneous injection of yeast, a technique reported at 54 J. Pharm. Exp. Ther. 346 (1935). A total of 24 rats was employed, divided into 6 treatment groups. One group was a normal control, without even the yeast injection. A second group served as a yeast control, receiving yeast injection but none of the test compound. All of the remaining groups received the test compound, in the following pattern: no yeast+100 mg./kg. of compound yeast+100 mg./kg. of compound yeast+50 mg./kg. of compound yeast+10 mg./kg. of compound The procedure was that yeast was administered to all rats at the same time, and temperatures were ascertained two hours later, at which time the test compound was administered to those groups assigned to receive it. Temperatures of all animals were also recorded thereafter at 1.0, 1.5, 2.0, 2.5, and 3.0 hours following administration of the test compound.

Assay [4] can be described thus: carrageenin-induced hind paw inflammation. Format: in vivo. Particulars: Rattus norvegicus. As for the experimental part: as §1
Background: Carrageenan injected into the paw causes an acute inflammation.

Assay [5] in a line: analgesic activity, acetic acid-induced writhing. The assay is classed as in vivo, mouse (albino male). The following applies: mouse, p.o., dose reducing writhing frequency by 50%; 30, 90, 180 minutes after administration. As for the experimental part: Representative compounds were also evaluated for analgesic activity. The evaluation was conducted by using acetic acid-induced writhing in mice as the pain model. Clinically effective analgesis are effective when tested in this model: see Koster et al., "Acetic Acid for Analgesic Screening," 18 Fed. Proc. 412 (1959).
In a method similar to that reported by Koster et al., standard strain albino male mice weighing 20-22 grams were fasted overnight. The respective compound or vehicle (as control) was administered by gastric lavage (p.o.). Each compound was administered in an aqueous suspension of 1% methylcellulose in water. […] At 30, 90, and 180 minutes after administration, writhing was induced by the intraperitoneal administration of 55 mg./kg. of acetic acid (0.55%). Each treatment group consisted of 5 mice and separate groups were examined at each observation time. The total number of writhes for the treatment group were counted in a 10-minute observation period starting 5 minutes after the acetic acid administration. The treatment totals were compared to controls and a percent inhibition calculated as follows: [formula] […] An ED50, which represented the dose that would reduce the writhing frequency by 50%, was estimated from a dose-reponse curve of three or more points. A dose range was reported if only two points were availale for the dose response curve and they bracketed the 50% level. If data was available at 100 mg./kg., only, then the estimated ED50 was reported simply as less than 100 (<100).
(Writhing tests count abdominal constrictions after an irritant is injected.)

As to `C#Cc1ccc(-c2ccccc2F)cc1` [(4-(2-fluorophenyl)phenyl)acetylene], the “% Erythema Inhibition” value in assay [1] (dog No. 04, 5 mg/kg) worked out at 100%; in assay [1] (dog No. 05, 1 mg/kg), 71%; in assay [1] (dog No. 05, 10 mg/kg), 100%. Further, the “Total erythemic score” value in assay [1] (dog No. 04, 5 mg/kg, control 15) is given as 0; in assay [1] (dog No. 05, 1 mg/kg, control 14), 4; in assay [1] (dog No. 05, 10 mg/kg, control 14) it was 0. Also, the “% Inhibition” value in assay [2] was 42% and 60%. The “Temperatures of rats receiving both yeast and test compound” value in assay [3] (10, 50 and 100 mg./kg., all reading times) is given as “uniformly lower”. Also, the “Temperature change in rats receiving no yeast injection” value in assay [3] (no yeast, 100 mg./kg.) is recorded as “some lowering of temperature occurred”. Moreover, the “Statistical significance of temperature change in rats receiving no yeast” value in assay [3] (no yeast, 100 mg./kg., versus normal control and yeast control groups) is on record as “not statistically significant”. Also, the Antipyretic action result in assay [3] (rats, yeast fever, conclusion) is “exhibited antipyretic action”. Moreover, the “Statistical significance of temperature differences, 1.5 hour reading” value in assay [3] (yeast rats, 50 mg./kg. and 100 mg./kg., 1.5 hour) is “not statistically significant”. Also, in assay [3] (yeast rats, all dose levels, 1.0 hour), the “Statistical significance of temperature differences, 1.0 hour reading” value is given as “not statistically significant”. Also, the “Statistical significance of temperature differences, all other doses” value in assay [3] (yeast rats, all other doses/readings) is “statistically significant”. Further, at 0.3 mg/kg the inhibition in vivo in assay [4] (0.3 mg./kg.) was 21%. This compound yielded an inhibition in vivo at 0.5 mg/kg in assay [4] (0.5 mg./kg.) of 6%. In assay [4] (1.5 mg./kg.), this compound returned an inhibition in vivo at 1.5 mg/kg of 29%. For the same compound, testing at 2.5 mg/kg in assay [4] (2.5 mg./kg.) gave an inhibition in vivo of 35%. This compound registered an inhibition in vivo at 5 mg/kg in assay [4] (5 mg./kg.) of 43%. In assay [4] (15 mg./kg.), this compound displayed an inhibition in vivo at 15 mg/kg of 56%. In addition, the inhibition in vivo at 25 mg/kg in assay [4] (25 mg./kg.) was 65%. In assay [4] (50 mg./kg.), this compound showed an inhibition in vivo at 50 mg/kg of 57%. Also, in assay [5], the “Estimated ED50” value is 20 mg/kg.
